Test results reported in patent US8900600B2, “Identification, optimization and use of cryptic HLA-A24 epitopes for immunotherapy” (VAXON Biotech, priority 2009, dated 2014).

Experiments:
[1] = tested on: HLA-A*2402 transgenic mice; assay: CTL induction in vivo in HLA-A*2402 transgenic mice (immunogenicity, Cr51 cytotoxic assay); design: key to Immunogenicity: (−) means that none of the mice vaccinated with the corresponding native peptides develops a specific immune response; (+) that less to 50% of vaccinated mice responded; (++) that more that 50% responded; key to Immunogenicity (class): −: (-) means that none of the mice vaccinated with the corresponding native peptides develops a specific immune response; (+) that less to 50% of vaccinated mice responded; (++) that more that 50% responded; conditions: for Immunogenicity (X/Y): X mice develop a specific response for a total of Y mice vaccinated / Immunogenicity (class): Table 7, mice vaccinated with the native or modified peptide; for Immunogenicity (class): share of mice responding; for Immunogenicity: Table 5, mice vaccinated with 100 μg native peptide in IFA, share of mice with specific immune response
Description: FIG. 1: Panels 1A-1F of FIG. 1 show immunogenicity of HLA-A*2402 cryptic peptides. HLA-A*2402 transgenic mice were vaccinated with the cryptic peptides following the described protocol and generated CTL were tested against T2-A24 targets loaded with peptide as indicated (NR non relevant peptide). Percentage of specific lysis was determined as: Lysis=(Experimental Release−Spontaneous Release)/(Maximal Release−Spontaneous Release)×100. Four CTL dilutions, corresponding to four CTL/target cells ratio were tested.
(§1) The transgenic mice used in the described experiments were obtained by crossing HLA-A24 transgenic mice previously described (Barra et al., 1993) and H2 Kb^− H2 Db^− knock out mice, transgenic for both human β2 microglobulin and CD8α chain (Perarnau et al., 1999).
Mice were injected subcutaneously with 100 μg of peptide emulsified in Incomplete Freund's Adjuvant (IFA) in the presence of 150 μg of the I-A^b restricted HBVcore128 T helper epitope (TPPAYRPPNAPIL, SEQ ID NO: 112). After 15 days, 5×10^7 spleen cells were stimulated twice in vitro with peptide (10 μM), at 6 days interval. On day 13 of culture, the bulk responder populations were tested for specific cytotoxicity against target cells expressing HLA-A*2402 and loaded with the same peptide.
(§2) Targets were labelled with 100 μCi of Cr^51 for 60 min, plated in 96-well V-bottomed plates (3×10^3 cell/well in 100 μL of RPMI 1640 medium) and, when necessary, pulsed with optimized or native peptides (1 μM) at 37° C. for 2 hours. Four dilutions of effector cells were then added in the wells and incubated at 37° C. for 4 hours. Percentage of specific lysis was determined as: Lysis=(Experimental Release−Spontaneous Release)/(Maximal Release−Spontaneous Release)×100.

[2] = target: HLA-A*2402 (Homo sapiens, UniProt P04439, D101N/D140Y/D185E/E176V/E190D/F33S/G103R/G107R/I119L/I121M/I306V/K335N/L105A/L180Q/L300P/N151K/N90K/Q86E/Q94H/R106L/R138H/R89G/T104I/T345S/V100E/W191G/Y123F); assay: Measurement of peptide relative affinity to HLA-A*2402 (surface expression on T2-A24 cells); assay type: cell-based; conditions: for RA (Relative Affinity): T2-A24 cells, 16 hours at 37° C., relative to reference peptide standard A24, concentration inducing 30% of HLA-A*2402 expression
Description: Measurement of Peptide Relative Affinity to HLA-A*2402.
The protocol used has been described previously (Rohrlich et al., 2003). Briefly, T2-A24 cells were incubated at 37° C. for 16 hours with peptides concentrations ranging from 100 μM to 0.1 μM, and then stained with 0041HA monoclonal antibody (mAb)(One Lambda, Inc.) to quantify the surface expression of HLA-A*2402. For each peptide concentration, the HLA-A*2402 specific staining was calculated as the percentage of staining obtained with 100 μM of the reference peptide standard A24 (AYIDNYNKF, SEQ ID NO: 111). The relative affinity (RA) was determined as: RA=(Concentration of each peptide that induces 30% of HLA-A*2402-expression/Concentration of the reference peptide that induces 30% of HLA-A*2402 expression).

[3] = tested on: HLA-A*2402 transgenic mice; assay: Cross-recognition assay: CTL from mice vaccinated with optimized peptide tested on targets loaded with native peptide; assay type: in vivo; conditions: Table 7, CTL of mice vaccinated with the optimized peptide
Description: FIG. 2: Panels 2A-2F of FIG. 2 show immunogenicity of HLA-A*2402 restricted optimized cryptic peptides. HLA-A*2402 transgenic mice were vaccinated with the optimized peptide following the described protocol and generated CTL were tested against T2-A24 targets loaded with the optimized (immunogenicity), the corresponding native (native peptide cross recognition) or an irrelevant (NR) peptide as indicated. Percentage of specific lysis was determined as: Lysis=(Experimental Release−Spontaneous Release)/(Maximal Release−Spontaneous Release)×100. Four CTL dilutions, corresponding to four CTL/target cells ratio were tested.
as §1
Mice were injected subcutaneously with 100 μg of optimized peptide emulsified in Incomplete Freund's Adjuvant (IFA) in the presence of 150 μg of the I-A^b restricted HBVcore128 T helper epitope (TPPAYRPPNAPIL, SEQ ID NO: 112). After 15 days, 5×10^7 spleen cells were stimulated firstly in vitro with the optimized peptide (10 μM), and secondly on day 6 of culture with the corresponding native peptide. On day 13, the bulk responder populations were tested for specific cytotoxicity against targets cells expressing HLA-A*2402 and loaded with the optimized, the native or an irrelevant peptide.
as §2

**Q.** What does the source list for “KYGVLLKTL (Optimized peptide derived from cryptic peptides of SEQ ID Nos 1 to 9) [TERT 403 K1L9]”?
**A.** Immunogenicity in HLA-A24 transgenic mice (in words) [1]: developed peptide specific CTLs; Immunogenicity (X/Y): X mice develop a specific response for a total of Y mice vaccinated [1]: 4/15; Immunogenicity (class) [1]: + ((+) that less to 50% of vaccinated mice responded)

**Q.** “PYDGIPARE (Cryptic HLA-A2402 restricted peptide) [Her2/neu 922, native cryptic HLA-A*2402 restricted peptide]” was tested. Which “RA (Relative Affinity)” value [2] did it give?
**A.** − ((−) means RA > 100)

**Q.** What does the source list for “PYGCLLDHV (Cryptic HLA-A2402 restricted peptide) [Her2/neu 802]”?
**A.** Binding to HLA-A*2402 (in words) [2]: binds to the HLA-A*2402; RA (Relative Affinity) [2]: + ((+) 5 < RA < 10); Immunogenicity in HLA-A24 transgenic mice (in words) [1]: immunogenic; Immunogenicity [1]: ++ ((++) that more that 50% responded)

**Q.** With “PYGKGWDLM (Cryptic HLA-A2402 restricted peptide) [EphA2 47, native cryptic HLA-A*2402 restricted peptide]” as the sequence, how does the Immunogenicity [1] read?
**A.** −

**Q.** And the “Immunogenicity (X/Y): X mice develop a specific response for a total of Y mice vaccinated” value (from here on “Immunogenicity (X/Y)”) [1]?
**A.** 0/6

**Q.** What about the “Immunogenicity (class)” value [1] of the same sequence?
**A.** −

**Q.** What about the “Native peptide cross recognition (X/Y): X mice develop a specific response for a total of Y mice vaccinated” value (shortened to “Native peptide cross recognition (X/Y)”) [3] of the same sequence?
**A.** 7/9

**Q.** And the “Native peptide cross recognition (class)” value [3]?
**A.** ++ ((++) that more that 50% responded)

**Q.** “PYGVLLKTH (Cryptic HLA-A2402 restricted peptide) [TERT 403, native cryptic HLA-A*2402 restricted peptide]” was tested. Which “RA (Relative Affinity)” value [2] did it give?
**A.** − ((−) means RA > 100)

**Q.** And the Immunogenicity [1]?
**A.** −

**Q.** And the “Immunogenicity (X/Y)” value [1]?
**A.** 0/3

**Q.** And the “Immunogenicity (class)” value [1]?
**A.** −

**Q.** And the “Native peptide cross recognition (X/Y)” value [3]?
**A.** 3/15

**Q.** What about the “Native peptide cross recognition (class)” value [3] of the same sequence?
**A.** + ((+) that less to 50% of vaccinated mice responded)

**Q.** How did the “RA (Relative Affinity)” value [2] turn out when “PYMRQFVAH (Cryptic HLA-A2402 restricted peptide) [TERT 770, native cryptic HLA-A*2402 restricted peptide]” was run?
**A.** +/− ((+/−) 10 < RA < 100)

**Q.** What about the Immunogenicity [1] of the same sequence?
**A.** −

**Q.** What about the “Immunogenicity (X/Y)” value [1] of the same sequence?
**A.** 0/3

**Q.** And the “Immunogenicity (class)” value [1]?
**A.** −

**Q.** And the “Native peptide cross recognition (X/Y)” value [3]?
**A.** 5/18

**Q.** And the “Native peptide cross recognition (class)” value [3]?
**A.** + ((+) that less to 50% of vaccinated mice responded)

**Q.** Which “RA (Relative Affinity)” value [2] does the source give for “PYNYLSTDV (Cryptic HLA-A2402 restricted peptide) [Her2/neu 300, native cryptic HLA-A*2402 restricted peptide]” here?
**A.** − ((−) means RA > 100)

**Q.** What about the Immunogenicity [1] of the same sequence?
**A.** −

**Q.** What about the “Immunogenicity (X/Y)” value [1] of the same sequence?
**A.** 0/3

**Q.** What about the “Immunogenicity (class)” value [1] of the same sequence?
**A.** −

**Q.** What does the source list for “PYVSRLLGI (Cryptic HLA-A2402 restricted peptide) [Her2/neu 780, native cryptic HLA-A*2402 restricted peptide]”?
**A.** Binding to HLA-A*2402 (in words) [2]: strongly binds; Immunogenicity in HLA-A24 transgenic mice (in words) [1]: non immunogenic; Immunogenicity [1]: −; Immunogenicity (X/Y): X mice develop a specific response for a total of Y mice vaccinated [1]: 0/8; Immunogenicity (class) [1]: −; Native peptide cross recognition (X/Y): X mice develop a specific response for a total of Y mice vaccinated [3]: 3/9; Native peptide cross recognition (class) [3]: + ((+) that less to 50% of vaccinated mice responded)

**Q.** How did the Immunogenicity [1] turn out when “PYWELSNHE (Cryptic HLA-A2402 restricted peptide) [EphA2 817, native cryptic HLA-A*2402 restricted peptide]” was run?
**A.** −

**Q.** What about the “Immunogenicity (X/Y)” value [1] of the same sequence?
**A.** 0/3

**Q.** And the “Immunogenicity (class)” value [1]?
**A.** −

**Q.** And the “Native peptide cross recognition (X/Y)” value [3]?
**A.** 2/3

**Q.** And the “Native peptide cross recognition (class)” value [3]?
**A.** ++ ((++) that more that 50% responded)

**Q.** For “RYDGIPARL (Optimized peptide derived from cryptic peptides of SEQ ID Nos 1 to 9) [Her2/neu 922 R1L9, modified peptide]”, which “Immunogenicity (X/Y)” value [1] is on record?
**A.** 0/9

**Q.** What about the “Immunogenicity (class)” value [1] of the same sequence?
**A.** −

**Q.** “RYEFLWGPL (Optimized peptide derived from cryptic peptides of SEQ ID Nos 1 to 9) [MAGE 261 L9, modified peptide]” was tested. Which “Immunogenicity (X/Y)” value [1] did it give?
**A.** 0/9

**Q.** What about the “Immunogenicity (class)” value [1] of the same sequence?
**A.** −

**Q.** What does the source list for “RYEFLWGPR (Cryptic HLA-A2402 restricted peptide) [MAGE 261, native cryptic HLA-A*2402 restricted peptide]”?
**A.** RA (Relative Affinity) [2]: − ((−) means RA > 100); Immunogenicity [1]: −; Immunogenicity (X/Y): X mice develop a specific response for a total of Y mice vaccinated [1]: 0/3; Immunogenicity (class) [1]: −

**Q.** “RYGKGWDLL (Optimized peptide derived from cryptic peptides of SEQ ID Nos 1 to 9) [EphA2 47 R1L9]” was tested. Which “Immunogenicity in HLA-A24 transgenic mice (in words)” value (from here on “Immunogenicity … (in words)”) [1] did it give?
**A.** developed peptide specific CTLs

**Q.** And the “Immunogenicity (X/Y)” value [1]?
**A.** 7/9

**Q.** And the “Immunogenicity (class)” value [1]?
**A.** ++ ((++) that more that 50% responded)

**Q.** For “RYLVQVQAL (Optimized peptide derived from cryptic peptides of SEQ ID Nos 1 to 9) [EphA2 502 R1]”, which “Immunogenicity … (in words)” value [1] is on record?
**A.** developed peptide specific CTLs

**Q.** And the “Immunogenicity (X/Y)” value [1]?
**A.** 3/3

**Q.** What about the “Immunogenicity (class)” value [1] of the same sequence?
**A.** ++ ((++) that more that 50% responded)

**Q.** What does the source list for “RYMRQFVAL (Optimized peptide derived from cryptic peptides of SEQ ID Nos 1 to 9) [TERT 770 R1L9]”?
**A.** Immunogenicity in HLA-A24 transgenic mice (in words) [1]: developed peptide specific CTLs; Immunogenicity (X/Y): X mice develop a specific response for a total of Y mice vaccinated [1]: 12/18; Immunogenicity (class) [1]: ++ ((++) that more that 50% responded)

**Q.** What does the source list for “RYNYLSTDL (Optimized peptide derived from cryptic peptides of SEQ ID Nos 1 to 9) [Her2/neu 300 R1L9, modified peptide]”?
**A.** Immunogenicity (X/Y): X mice develop a specific response for a total of Y mice vaccinated [1]: 0/9; Immunogenicity (class) [1]: −

**Q.** What does the source list for “RYVSRLLGI (Optimized peptide derived from cryptic peptides of SEQ ID Nos 1 to 9) [HER 780 R1]”?
**A.** Immunogenicity in HLA-A24 transgenic mice (in words) [1]: developed peptide specific CTLs; Immunogenicity (X/Y): X mice develop a specific response for a total of Y mice vaccinated [1]: 4/9; Immunogenicity (class) [1]: + ((+) that less to 50% of vaccinated mice responded)

**Q.** For “RYWELSNHL (Optimized peptide derived from cryptic peptides of SEQ ID Nos 1 to 9) [EphA2 817 R1L9]”, which “Immunogenicity … (in words)” value [1] is on record?
**A.** developed peptide specific CTLs

**Q.** What about the “Immunogenicity (X/Y)” value [1] of the same sequence?
**A.** 2/3

**Q.** And the “Immunogenicity (class)” value [1]?
**A.** ++ ((++) that more that 50% responded)

**Q.** How did the Immunogenicity [1] turn out when “TYLVQVQAL (Cryptic HLA-A2402 restricted peptide) [EphA2 502, native cryptic HLA-A*2402 restricted peptide]” was run?
**A.** −

**Q.** And the “Immunogenicity (X/Y)” value [1]?
**A.** 0/3

**Q.** What about the “Immunogenicity (class)” value [1] of the same sequence?
**A.** −

**Q.** And the “Native peptide cross recognition (X/Y)” value [3]?
**A.** 2/3

**Q.** What about the “Native peptide cross recognition (class)” value [3] of the same sequence?
**A.** ++ ((++) that more that 50% responded)
